Source: patent US4966896A, “Derivative of N-methylcarbamate and insecticide containing the same” (priority 1988, dated 1990)
Where two headings read alike, the source gives them in different places.

Tests used:
[1] = system: Southern root-knot nematode (Meloidogyne incognita); experiment: Root-knot index on tomato seedlings in soil contaminated with Southern root-knot nematode (Test Example 3); type: in vivo; conditions: 3% granule, checked 25 days after transplanting
Method: A predetermined quantity of a 3% granule of each compound was mixed with a soil contaminated with Southern root-knot nematode (Meloidogyne incognita). 2 days after treatment of the compound, 3 to 4 leaf stage tomato seedlings were transplanted, and the root-knot index was checked 25 days later.
The root-knot index was determined with the following standard for nemotoidal evaluation.
2 Moderate number of root-knots found
4 Very many root-knots found

[2] = system: Green rice leafhopper (Nephotettix cincticeps); experiment: Mortality of Green rice leafhopper female adults on pot-grown rice plants treated with a 1000 ppm suspension (Test Example 1); type: in vivo
Method: 10 ml of a 1000 ppm suspension of each sample compound (30% wettable powder) was poured into a pot in which rice plant (1.5 leaf stage) was grown, and the pot was placed in a greenhouse enclosed by glass. 3 days after applying the sample compound, the rice plant was covered by a cylindrical metal netting having a diameter of 7.5 cm and a height of 40 cm and 10 female adults of Green rice leafhopper (Nephotettix cincticeps) were released in the netting. The numbers of living and dead insects were checked 48 hours after applying. The test was repeated twice.

second instar larvae = experiment: Mortality of second instar larvae on pot-grown cabbage treated with a 1000 ppm suspension (Test Example 2); type: in vivo
Method: 30 ml of a 1000 ppm suspension of each sample compound (30% wettable powder) was poured into a pot in which cabbage (2 to 3 leaf stage) was grown, and the pot was placed in a greenhouse enclosed by glass. 3 days after applying the sample compound, the cabbage was covered by a cylindrical metal netting having a diameter of 7.5 cm and a height of 20 cm and 10 second instar larvae were released in the netting. 48 hours after applying the numbers of living and dead insects were checked. The test was repeated twice.

[3] = Acute oral toxicity in mice (Toxicity Test Example); conditions: mouse, in vivo, male mice, 7 days after administration, Litchfield-Wilcoxon Method
Method: Representative examples of the compound of this invention were administered orally to mice (.male.) and the acute toxicities thereof were tested. LD50 was calculated from the percentage of dead mice according to the Litchfield-Wilcoxon Method 7 days after the administration.

[4] = system: warm-blooded animals and fishes; conditions: prior art statement; cited from earlier work

CN(C(=O)NS(=O)(=O)Cl)C(=O)Oc1cccc2c1OC(C)(C)C2 [Compound No. 1, 2,3-Dihydro-2,2-dimethylbenzofuran-7-yl N-(chlorosulfonylcarbamoyl) N-methylcarbamate]
Root-Knot Index ([1]; Active Ingredient 250 g/a): 2 | Root-Knot Index ([1]; Active Ingredient 500 g/a): 1 | mortality at 1000 ppm ([2]; 48 h): 100% | mortality at 1000 ppm (second instar larvae; 48 h): 100%

CNS(=O)(=O)NC(=O)N(C)C(=O)Oc1cccc2c1OC(C)(C)C2 [Compound No. 2, 2,3-Dihydro-2,2-dimethylbenzofuran-7-yl N-(methylsulfamoylcarbamoyl) N-methylcarbamate]
Root-Knot Index ([1]; Active Ingredient 250 g/a): 3 | Root-Knot Index ([1]; Active Ingredient 500 g/a): 2 | mortality at 1000 ppm ([2]; 48 h): 100% | mortality at 1000 ppm (second instar larvae; 48 h): 100%

CCNS(=O)(=O)NC(=O)N(C)C(=O)Oc1cccc2c1OC(C)(C)C2 [Compound No. 3, 2,3-Dihydro,2,2-dimethylbenzofurane-7-yl N-(ethylsulfamoylcarbamoyl) N-methylcarbamate]
Root-Knot Index ([1]; Active Ingredient 250 g/a): 2 | Root-Knot Index ([1]; Active Ingredient 500 g/a): 1 | LD50 at 168 h [3]: 170 mg/kg | mortality at 1000 ppm ([2]; 48 h): 100% | mortality at 1000 ppm (second instar larvae; 48 h): 100%

CC(C)NS(=O)(=O)NC(=O)N(C)C(=O)Oc1cccc2c1OC(C)(C)C2 [Compound No. 4]
Root-Knot Index ([1]; Active Ingredient 250 g/a): 2 | Root-Knot Index ([1]; Active Ingredient 500 g/a): 1 | mortality at 1000 ppm ([2]; 48 h): 100% | mortality at 1000 ppm (second instar larvae; 48 h): 100%

CCCCNS(=O)(=O)NC(=O)N(C)C(=O)Oc1cccc2c1OC(C)(C)C2 [Compound No. 5, 2,3-dihydro-2,2-dimethylbenzofuran-7-yl N-(butylsulfamoylcarbamoyl) N-methylcarbamate]
Root-Knot Index ([1]; Active Ingredient 250 g/a): 2 | Root-Knot Index ([1]; Active Ingredient 500 g/a): 1 | LD50 at 168 h [3]: 200 mg/kg | mortality at 1000 ppm ([2]; 48 h): 100% | mortality at 1000 ppm (second instar larvae; 48 h): 100%

CNC(=O)Oc1cccc2c1OC(C)(C)C2 [Control, 2,3-dihydro-2,2-dimethylbenzofuran-7-yl N-methyl-carbamate]
toxicity to warm-blooded animals and fishes [4]: extremely toxic to warm-blooded animals and fishes

CNC(=O)Oc1cccc2c1OC(C)(C)C2 [Control]
LD50 at 168 h [3]: 5 mg/kg | mortality at 1000 ppm ([2]; 10 ml of 1000 ppm suspension (30% wettable powder) per pot, insects released 3 days after applying, checked at 48 hours, repeated twice, read-out: Mortality): 100% | mortality at 1000 ppm (second instar larvae; 30 ml of 1000 ppm suspension (30% wettable powder) per pot, larvae released 3 days after applying, checked at 48 hours, repeated twice, read-out: Mortality): 100%

C#CCNS(=O)(=O)NC(=O)N(C)C(=O)Oc1cccc2c1OC(C)(C)C2 [compound 7, 2,3-dihydro-2,2-dimethylbenzofuran-7-yl N-(propargylsulfamoylcarbamoyl) N-methylcarbamate]
Root-Knot Index ([1]; Active Ingredient 250 g/a): 2 | Root-Knot Index ([1]; Active Ingredient 500 g/a): 1 | mortality at 1000 ppm ([2]; 48 h): 100% | mortality at 1000 ppm (second instar larvae; 48 h): 100%

CN(C(=O)NS(=O)(=O)Nc1ccccc1Cl)C(=O)Oc1cccc2c1OC(C)(C)C2 [compound 8]
Root-Knot Index ([1]; Active Ingredient 250 g/a): 3 | Root-Knot Index ([1]; Active Ingredient 500 g/a): 2 | mortality at 1000 ppm ([2]; 48 h): 90%

COc1ccccc1NS(=O)(=O)NC(=O)N(C)C(=O)Oc1cccc2c1OC(C)(C)C2 [compound 9]
Root-Knot Index ([1]; Active Ingredient 250 g/a): 3 | Root-Knot Index ([1]; Active Ingredient 500 g/a): 2 | mortality at 1000 ppm ([2]; 48 h): 90%

COC(=O)c1ccccc1NS(=O)(=O)NC(=O)N(C)C(=O)Oc1cccc2c1OC(C)(C)C2 [compound 10]
Root-Knot Index ([1]; Active Ingredient 250 g/a): 2 | Root-Knot Index ([1]; Active Ingredient 500 g/a): 1 | mortality at 1000 ppm ([2]; 48 h): 90%

CCOC(=O)c1ccc(NS(=O)(=O)NC(=O)N(C)C(=O)Oc2cccc3c2OC(C)(C)C3)cc1 [compound 11]
Root-Knot Index ([1]; Active Ingredient 250 g/a): 3 | Root-Knot Index ([1]; Active Ingredient 500 g/a): 2 | mortality at 1000 ppm ([2]; 48 h): 90%

CN(C(=O)NS(=O)(=O)Nc1nccs1)C(=O)Oc1cccc2c1OC(C)(C)C2 [compound 12]
Root-Knot Index ([1]; Active Ingredient 250 g/a): 3 | Root-Knot Index ([1]; Active Ingredient 500 g/a): 2 | mortality at 1000 ppm ([2]; 48 h): 100%

CN(C(=O)NS(=O)(=O)Nc1ccccn1)C(=O)Oc1cccc2c1OC(C)(C)C2 [compound 13]
Root-Knot Index ([1]; Active Ingredient 250 g/a): 3 | Root-Knot Index ([1]; Active Ingredient 500 g/a): 2 | mortality at 1000 ppm ([2]; 48 h): 100%

CONS(=O)(=O)NC(=O)N(C)C(=O)Oc1cccc2c1OC(C)(C)C2 [compound 14, 2,3-dihydro-2,2-dimethylbenzofuran-7-yl N-(methoxysulfamoylcarbamoyl) N-methylcarbamate]
Root-Knot Index ([1]; Active Ingredient 250 g/a): 3 | Root-Knot Index ([1]; Active Ingredient 500 g/a): 2 | mortality at 1000 ppm ([2]; 48 h): 100%

CCCNS(=O)(=O)NC(=O)N(C)C(=O)Oc1cccc2c1OC(C)(C)C2 [compound 15, 2,3-dihydro-2,2-dimethylbenzofuran-7-yl N-(propylsulfamoylcarbamoyl) N-methylcarbamate]
Root-Knot Index ([1]; Active Ingredient 250 g/a): 2 | Root-Knot Index ([1]; Active Ingredient 500 g/a): 1 | mortality at 1000 ppm ([2]; 48 h): 100% | mortality at 1000 ppm (second instar larvae; 48 h): 100%

CCC(C)NS(=O)(=O)NC(=O)N(C)C(=O)Oc1cccc2c1OC(C)(C)C2 (centres unmarked) [compound 16]
Root-Knot Index ([1]; Active Ingredient 250 g/a): 2 | Root-Knot Index ([1]; Active Ingredient 500 g/a): 1 | mortality at 1000 ppm ([2]; 48 h): 100% | mortality at 1000 ppm (second instar larvae; 48 h): 100%

CN(C(=O)NS(=O)(=O)NC(C)(C)C)C(=O)Oc1cccc2c1OC(C)(C)C2 [compound 17]
Root-Knot Index ([1]; Active Ingredient 250 g/a): 2 | Root-Knot Index ([1]; Active Ingredient 500 g/a): 1 | mortality at 1000 ppm ([2]; 48 h): 100% | mortality at 1000 ppm (second instar larvae; 48 h): 100%

CN(C(=O)NS(=O)(=O)NC1CCCC1)C(=O)Oc1cccc2c1OC(C)(C)C2 [compound 18]
mortality at 1000 ppm ([2]; 48 h): 80%

CN(C(=O)NS(=O)(=O)NC1CCCCC1)C(=O)Oc1cccc2c1OC(C)(C)C2 [compound 19]
mortality at 1000 ppm ([2]; 48 h): 80%
